Experimental findings from patent publication US20040171680A1, “Treating Syndrome X with substituted tetralins and indanes” (priority 2002, published 2004) are described below.

Where two headings read alike, the source gives them in different places.

By EC50 is commonly meant the concentration at which the effect is half-maximal.

For one assay, the target named is T1, PPARα (Rattus norvegicus, UniProt P37230).
T1 construct: H4IIE rat hepatoma cell line was obtained from ATCC; host or cells: H4IIE rat hepatoma cells
T1 sequence (P37230 1-468): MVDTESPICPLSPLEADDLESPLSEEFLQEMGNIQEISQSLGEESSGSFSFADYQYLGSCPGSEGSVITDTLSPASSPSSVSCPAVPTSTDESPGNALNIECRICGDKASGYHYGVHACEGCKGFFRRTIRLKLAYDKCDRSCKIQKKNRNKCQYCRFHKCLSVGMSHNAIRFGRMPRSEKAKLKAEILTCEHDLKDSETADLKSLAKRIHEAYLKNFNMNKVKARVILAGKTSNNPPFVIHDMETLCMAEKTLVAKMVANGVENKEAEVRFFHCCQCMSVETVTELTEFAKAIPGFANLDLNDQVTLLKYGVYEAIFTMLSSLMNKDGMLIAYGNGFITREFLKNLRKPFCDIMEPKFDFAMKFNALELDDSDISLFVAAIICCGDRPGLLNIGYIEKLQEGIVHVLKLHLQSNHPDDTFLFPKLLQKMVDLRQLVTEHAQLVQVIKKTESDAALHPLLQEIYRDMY
Put plainly: HD bDNA Assay (HD gene induction). The format is cell-based. The settings on record: in section F; target not named there, values match the PPARα column; read-out: EC50. How it is done: HD bDNA Assay H4IIE rat hepatoma cell line was obtained from ATCC. Cells were cultured in 175 cm^2 tissue culture flask or seeded in 96-well plate with (high serum content, 10% fetal bovine serum and 10% calf serum) culture medium and maintained at 37° C. and 5% CO2 throughout study. Twenty-four hours after the initial seeding of the 96-well plate by hand (approximate 100,000/well), the HD gene induction assay was initiated. Media was removed and replaced with 100 ul of low serum culture media (5% charcoal/dextran treated calf serum) containing vehicle (DMSO) or test compounds or standard. Cells returned to incubator for 24 hours culture. At the termination of the challenge, 50 ul lysis buffer with HD gene specific CE, LE, BL probes was added directly into each well to initiate the bDNA HD mRNA assay. The branched DNA assay was performed according to the manufacturer's protocol (Bayer Diagnostics; Emeryville. Calif.). At the end of the assay, the luminescence was quantitated in Dynex MLX microtiter plate luminometer. EC50's were determined by non-linear regression with a sigmoidal fit utilizing Graphpad Prism.

For a further assay, the system named is db/db mice. Put plainly: Oral dosing in female db/db mice. Type of assay: in vivo. To be noted: Mus musculus, 120 h, 1.0 mpk, 5 day oral dosing, % change compared to vehicle. The protocol: The compound was prepared as suspensions in 0.5% hydroxypropylmethylcellulose (Dow Chemical, Midland, Mich.). The dosing volume was 10 mL/kg of body weight. […] Body weight was measured in the mornings on Day 1, prior to dosing, and on Day 12 before bleeding. 18-24 hours after the final dose for each group, the mice were anesthetized with CO2/O2 (70:30) and bled by retro-orbital sinus puncture into micro-tubes containing clog activator and then put in ice. The serum samples were prepared by centrifugation. Serum glucose and triglycerides were determined by using COBAS Mira Plus blood chemistry analyzer (Roche Diagnostics, N.J.). Serum insulin was measured by using ALPCO insulin ELISA kit.
Statistical analysis was performed using the program Prism (Graphpad, Monrovia, Calif.) and performing one-way ANOVA with a Dunnet's multiple comparison test.

In the next assay the target is T2, PPARγ (Homo sapiens, UniProt P37231).
T2 construct: Following the challenge of the preadipocytes, cells may be lysed with lysis buffer; endogenous in cells; host or cells: preadipocytes
T2 sequence (P37231 1-505): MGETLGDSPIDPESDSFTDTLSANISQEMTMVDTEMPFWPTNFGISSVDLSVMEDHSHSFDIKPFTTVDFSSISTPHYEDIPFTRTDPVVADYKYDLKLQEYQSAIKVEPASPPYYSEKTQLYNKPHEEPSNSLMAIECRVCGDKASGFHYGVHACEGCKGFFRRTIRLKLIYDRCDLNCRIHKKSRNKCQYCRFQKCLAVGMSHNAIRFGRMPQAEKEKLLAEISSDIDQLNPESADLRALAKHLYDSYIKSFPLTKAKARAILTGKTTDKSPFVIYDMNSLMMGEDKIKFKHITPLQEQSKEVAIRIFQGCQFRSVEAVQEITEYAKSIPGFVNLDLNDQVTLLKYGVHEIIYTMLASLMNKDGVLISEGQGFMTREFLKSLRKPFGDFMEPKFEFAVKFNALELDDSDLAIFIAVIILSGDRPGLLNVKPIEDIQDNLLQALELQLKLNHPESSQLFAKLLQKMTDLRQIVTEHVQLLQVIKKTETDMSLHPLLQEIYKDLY
Put plainly: aP2 Assay for PPAR gamma Agonists (bDNA aP2 mRNA in preadipocytes). Type of assay: cell-based. The settings on record: for PPARγ FI: fold induction, PPARγ standard: FI = 70.3; for EC50: values in square brackets. From the text: aP2 Assay for PPAR gamma Agonists
The procedure is described in detail in Burris et al., Molecular Endocrinology, 1999, 13:410, which is hereby incorporated by reference in its entirety, and aP2 assay results of agonist intrinsic activity may be presented as fold increase over vehicle in induction of aP2 mRNA production.
Twenty-four hours after the initial seeding of the 96-well plates by hand (around 20,000/well), the differentiation assay may be initiated. Medium may be removed and replaced with […] of differentiation medium containing vehicle (DMSO) or test compounds. Cells may be returned to incubator for 24 hours culture. At the termination of the challenge, medium may be removed and 100 ul of lysis buffer may be added to initiate the bDNA aP2 mRNA assay. The branched DNA assay may be performed according to the manufacturer's protocol (Bayer Diagnostics; Emeryville, Calif.). Result may be expressed as the fold increase of aP2 mRNA production activated over vehicle controls. EC50's and Emax may be determined by non-linear regression with a sigmoidal fit curve.
Following the challenge of the preadipocytes, cells may be lysed with lysis buffer (Bayer Diagnostics) containing the aP2 oligonucleotides. After a 15 minute incubation at 53° C. or 30 minutes at 37° C. incubator, 70 ul of the lysis buffer from each well may be added to a corresponding capture well (preincubated with 70 ul of blocking buffer (Bayer Diagnostics)). The capture plate may be incubated overnight at 53° C. in a plate incubator (Bayer Diagnostics). After this incubation, the bDNA and labeled probes may be annealed as directed by the manufacturer. Following a 30-minute incubation with the luminescent alkaline phosphatase substrate, dioxitane, the luminescence may be quantitated in a Dynex MLX microtiter plate luminometer. Oligonucleotide probes designed to anneal to the aP2 mRNA and function in the bDNA mRNA detection system are designed with ProbeDesigner software (Bayer Diagnostics). This software package analyzes a target sequence of interest with a series of algorithms in order to determine which regions of the sequence can perform as locations for capture, label, or spacer probe annealing. The sequences of the oligonucleotides are as follows: […]

The target in a further assay is T3, PPARδ (Homo sapiens, UniProt Q03181).
T3 construct: a Gal4-Luciferase reporter is co-transfected
T3 sequence (Q03181 171-441 limits assumed): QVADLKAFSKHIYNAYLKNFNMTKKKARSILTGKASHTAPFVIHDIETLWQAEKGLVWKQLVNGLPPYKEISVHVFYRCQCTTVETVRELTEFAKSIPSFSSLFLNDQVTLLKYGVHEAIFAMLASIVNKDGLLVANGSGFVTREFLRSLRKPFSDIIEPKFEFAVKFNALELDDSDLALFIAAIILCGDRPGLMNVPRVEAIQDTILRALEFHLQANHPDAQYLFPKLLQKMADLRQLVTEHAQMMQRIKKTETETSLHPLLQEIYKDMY
Nature of the assay: Transfection Assay for PPARδ Receptors (PPAR-Gal4 / Gal4-Luciferase reporter in HEK293 cells). The settings on record: for EC50: values in square brackets. The format is cell-based. The protocol: Transfection Assay for PPARδ Receptors
HEK293 cells were grown in DMEM/F-12 Media supplemented with 10% FBS and glutamine (GIBCOBRL). The cells were co-transfected with DNA for PPAR-Gal4 receptor and Gal4-Luciferase Reporter using the DMRIE-C Reagent. On the following day, the DNA-containing medium were replaced with 5% Charcoal treated FBS growth medium. After six hours, cells were seeded in 96 well plate and incubated at 37° C. in CO2 incubator overnight. Cells were challenged by test compounds and incubated for 24 hours at 37° C. in 5% CO2 incubator. Luciferase activity was assayed using the Steady-Glo Luciferase Assay Kit from Promega. DMRIE-C Reagent was purchased from GIBCO Cat. No.10459-014. OPTI-MEM I Reduced Serum Medium was purchased from GIBCO Cat. No. 31985. Steady-Glo Luciferase Assay Kit was obtained from Promega Part# E254B.
In general terms: In a reporter assay the amount or activity of a reporter protein is the signal.

Regarding `CCN(C(=O)Nc1ccc(SC(F)(F)F)cc1)C1Cc2ccc(SC(C)(C)C(=O)O)cc2C1` (centres unmarked) [Example 4, 2-{2-[1-Ethyl-3-(4-trifluoromethylsulfanylphenyl)ureido]indan-5-ylsulfanyl}-2-methylpropionic acid], at PPARα, the EC50 turned out to be 0.037 µM. Further, the change in vivo at 1 mg/kg was -11% in the assay with db/db mice (read-out: Δ BW), -49% in the assay on db/db mice (read-out: Δ Plasma Glucose), -13% in the assay on db/db mice (read-out: Δ Plasma Insulin) and -47% in the assay on db/db mice (read-out: Δ Plasma TG). For the same compound, the “PPARγ FI” value on PPARγ was determined as 3.7.
Turning to `CCCCCN(C(=O)Nc1ccc(-c2ccccc2)cc1)C1Cc2ccc(SC(C)(C)C(=O)O)cc2C1` (centres unmarked) [Example 12], the EC50 at PPARα was found to be 0.183 µM. Moreover, the “PPARγ FI” value at PPARγ worked out at 11.
Regarding `CCCCCCN(C(=O)Nc1ccc(C(C)C)cc1)C1Cc2ccc(SC(C)(C)C(=O)O)cc2C1` (centres unmarked) [Example 13], the EC50 on PPARα was 0.184 µM. At PPARγ, the “PPARγ FI” value came to 1.2.
Consider `CCCCCCN(C(=O)Nc1ccc(OC(F)(F)F)cc1)C1Cc2ccc(SC(C)(C)C(=O)O)cc2C1` (centres unmarked) [Example 14, 2-Methyl-2-{2-[1-hexyl-3-(4-trifluoromethoxyphenyl)ureido]indan-5-ylsulfanyl}propionic acid], for which, at PPARα, the EC50 was 0.213 µM. Further, the “PPARδ FI” value on PPARδ (fold induction, PPARδ standard: FI = 36.1) turned out to be 1.3. Besides, at PPARγ, the “PPARγ FI” value was determined as 0.3.
`CCCN(C(=O)Nc1ccc(OC(F)(F)F)cc1)C1Cc2ccc(SC(C)(C)C(=O)O)cc2C1` (centres unmarked) [Example 16, 2-Methyl-2-{2-[1-propyl-3-(4-trifluoromethoxyphenyl)ureido]indan-5-ylsulfanyl}propionic acid]: the concentration giving a half-maximal response (EC50) on PPARα amounted to 0.158 µM. The “PPARγ FI” value on PPARγ is given as 0.37.
With `CCCCN(C(=O)Nc1ccc(SC(F)(F)F)cc1)C1Cc2ccc(SC(C)(C)C(=O)O)cc2C1` (centres unmarked) [Example 17, 2-Methyl-2-{2-[1-butyl-3-(4-trifluoromethylsulfanylphenyl)ureido]indan-5-ylsulfanyl}propionic acid], on PPARα, the EC50 was found to be 0.16 µM. Moreover, the “PPARγ FI” value at PPARγ stood at 0.43.
For the compound `CC(C)(Sc1ccc2c(c1)CC(NC(=O)Nc1ccc(OC(F)(F)F)cc1)C2)C(=O)O` (centres unmarked) [Example 18, 2-Methyl-2-{2-[3-(4-trifluoromethoxyphenyl)ureido]indan-5-ylsulfanyl}propionic acid], at PPARα, the concentration for a half-maximal effect (EC50) stood at 0.135 µM. Also, the “PPARγ FI” value at PPARγ was 0.31.
For the compound `CC(C)CCN(C(=O)Nc1ccc(OC(F)(F)F)cc1)C1Cc2ccc(SC(C)(C)C(=O)O)cc2C1` (centres unmarked) [Example 20, 2-Methyl-2-{2-[1-(3-methylbutyl)-3-(4-trifluoromethoxyphenyl)ureido]indan-5-ylsulfanyl}-2-methylpropionic acid], the EC50 at PPARα was found to be 0.106 µM. The “PPARγ FI” value on PPARγ was found to be 0.44.
Consider `CC(C)CCN(C(=O)Nc1ccc(C(C)C)cc1)C1Cc2ccc(SC(C)(C)C(=O)O)cc2C1` (centres unmarked) [Example 21, 2-{2-[3-(4-Isopropylphenyl)-1-(3-methylbutyl)ureido]indan-5-ylsulfanyl}-2-methylpropionic acid], for which the EC50 on PPARα was found to be 0.106 µM. The “PPARγ FI” value on PPARγ turned out to be 0.05.
In the case of `CCN(C(=O)Oc1ccc(C)cc1)C1CCc2cc(SC(C)(C)C(=O)O)c(Cl)cc2C1` (centres unmarked) [Example 58, 2-{3-Chloro-6-[(4-methyl-phenoxycarbonyl)-ethyl-amino]-5,6,7,8-tetrahydronaphthalen-2-ylsulfanyl}-2-methyl-propionic acid], the EC50 is 0.34 µM at PPARα, 0.613 µM at PPARδ and over 3 µM at PPARγ.
Taken in the same sequence, the figures for `CCN(C(=O)Oc1ccc(Cl)cc1)C1CCc2cc(SC(C)(C)C(=O)O)c(Cl)cc2C1` (centres unmarked) [Example 59, 2-{3-Chloro-6-[(4-chloro-phenoxycarbonyl)-ethyl-amino]-5,6,7,8-tetrahydronaphthalen-2-ylsulfanyl}-2-methyl-propionic acid] were 0.39 µM, 0.655 µM and 1.11 µM.
Consider `CCN(C(=O)Oc1ccc(OC(F)(F)F)cc1)C1CCc2cc(SC(C)(C)C(=O)O)ccc2C1` (centres unmarked) [Example 60, 2-{6-[Ethyl-(4-trifluoromethoxy-phenoxycarbonyl)-amino]-5,6,7,8-tetrahydronaphthalen-2-ylsulfanyl}-2-methyl-propionic acid], for which the figures for the EC50 on PPARα, on PPARδ and at PPARγ were 0.002 µM, over 3 µM and over 3 µM, respectively.
